Data from patent US20130225629A1, “TARGETING PI3K/MTOR SIGNALLING AND NEUTROPHIL RECRUITMENT FOR TREATMENT OF ENTERITIS” (THE UNIVERSITY OF NORTH CAROLINA AT CHAPEL HILL, priority 2012, published 2013).

Assays:
II-17a mRNA = assay: Real-time RT-PCR of colonic II-17a mRNA; assay type: in vivo, mice; conditions: AS252424 vs vehicle treated infected mice
Procedure: Total RNA from colonic tissue was extracted using TRIzol® kit (Invitrogen, Carlsbad, Calif., United States of America). Complementary DNA was prepared using M-MLV (Invitrogen). Messenger RNA levels of proinflammatory genes were determined using SYBR® Green PCR Master Mix (Applied Biosystems, Carlsbad, Calif., United States of America) on an ABI 7900HT Fast Real-Time PCR System and normalized to Gapdh. The polymerase chain reactions were performed according to the manufacturer's recommendation. The following gene primers were used: Gapdh_forward: 5′-[…]-3′ (SEQ ID NO: 2), Gapdh_reverse: 5′-[…]-3′ (SEQ ID NO: 3), II-1_forward: 5′-[…]-3′ (SEQ ID NO: 4), II-1_reverse: 5′-[…]-3′ (SEQ ID NO: 5), Cxcl2_forward: 5′-[…]-3′ (SEQ ID NO: 6), Cxcl2_reverse: 5′-[…]-3′ (SEQ ID NO: 7), II-17a_forward: 5′-[…]-3′ (SEQ ID NO: 8), II-17a_reverse: 5′-[…]-3′ (SEQ ID NO: 9), II12p40_forward: […] (SEQ ID NO: 10), II12p40_reverse: […] (SEQ ID NO: 11), Tnf forward: […] (SEQ ID NO: 12), Tnf reverse: […] (SEQ ID NO: 13).
Total RNA from intestinal tissues was extracted using TRIzol® kit (Invitrogen, Carlsbad, Calif., United States of America) following the manufacture's guide. cDNA was reverse-transcribed using M-MLV (Invitrogen). Proinflammatory 111β, Cxcl2, II17a and Tnfα mRNA expression levels were measured using SYBR® Green PCR Master mix (Applied Biosystems, Carlsbad, Calif., United States of America) on an ABI 7900HT Fast Real-Time PCR System and normalized to Gapdh. The PCR primers used were reported previously. (Sun et al., 2012). The PCR reactions were performed for 40 cycles according to the manufacturer's recommendation, and RNA fold changes were calculated using the ΔΔct method.

C. jejuni = C. jejuni induced colitis, histological intestinal inflammation score; assay type: in vivo, mice; conditions: AS252424 10 mg/kg i.p. daily, 6 days, vs vehicle
From the text: All animal protocols were approved by the Institutional Animal Care and Use Committee of the University of North Carolina at Chapel Hill (Chapel Hill, N.C., United States of America). Germ-free 8 to 12 week old II10^−/−; NF-κBEGFP (129/SvEv; C57BL/6 mixed background) mice were transferred from germ-free isolators and immediately gavaged with 10^9 C. jejuni cfu/mouse (strain 81-176 (Korlath et al., 1985)). Mice were then housed under Specific Pathogen-Free (SPF) conditions and sacrificed at 5 or 12 days. […] Intestinal inflammation was scored by evaluating the degree of lamina propria immune cell infiltration, goblet cell depletion, architectural distortion, as well as crypt hyperplasia, ulceration, and abscesses using a score from 0-4. […] Cecal and colonic inflammation induced by S. typhimurium was evaluated using a score from 0-13 as described. […]
All animal protocols were approved by the Institutional Animal Care and Use Committee of the University of North Carolina at Chapel Hill (Chapel Hill, N.C., United States of America). […] Histological images were acquired using a DP71 camera and DP Controller 3.1.1.276 (Olympus, Center Valley, Pa., United States of America), and intestinal inflammation was scored on a scale of 0 to 4 as described before (Lippert et al., 2009; Sun et al., 2012). […]

O=C1NC(=O)/C(=C/c2ccc(-c3ccc(F)cc3O)o2)S1 [AS252424]
block of C. jejuni-induced II17a mRNA accumulation (II-17a mRNA): 72%
C. jejuni-induced colitis (C. jejuni): reduced
